# Source: patent publication US20260232720A1, “NEW MEDICAL USE OF SEVUPARIN IN THE TREATMENT OF ENDOTOXEMIA” (Modus Therapeutics AB, priority 2023, published 2026)
# Where two headings read alike, the source gives them in different places.
# Columns and labels:
# healthy volunteers [1] = settings: for Basophil count / Eosinophil count / Lymphocyte count / Monocyte count / Neutrophil count: LS Means, IV LPS 1 ng/kg
# Excerpt: (§1) A randomized, placebo-controlled study to evaluate the effects of intravenous sevuparin on LPS reactions (first part), and the interaction between subcutaneous enoxaparin and sevuparin on coagulation responses in healthy volunteers (second part), has been performed.
# (§2) Objectives for first part of the clinical study: To evaluate the effect of intarvenous (IV) sevuparin on safety and tolerability and inflammatory responses following an intravenous (IV) LPS challenge.
# (§3) • Leucocyte differential • Cytokines (including IL-6, IL-8, IL-10 and TNF-α) • Flow cytometry (Neutrophils, monocyte subsets, T cells, B cells, NK cells, dendritic cells, including neutrophil extracellular traps) • Explorative biomarkers: acute phase reactants and components measurable in blood, serum and plasma of relevance for septic inflammation may be measured and reported separately.
# (§4) In the first part of the study, sevuparin (or matching placebo) is administered by IV infusion (bolus loading dose followed by continuous infusion over 6 hours); In the second part of the study, sevuparin and enoxaparin are given by subcutaneous injection.
# (§5) The sevuparin dose was as follows in the first part of the study: • Group 1 (sevuparin low dose): loading bolus dose of 0.3 mg/kg bodyweight, followed by IV infusion at 0.08 mg/kg/h; • Group 2 (sevuparin intermediate dose): loading dose of 1 mg/kg bodyweight, followed by IV infusion at 0.25 mg/kg/h; • Group 3 (sevuparin high dose): loading dose of 3 mg/kg bodyweight, followed by IV infusion at 0.75 mg/kg/h.
# (§6) In the first part of the study, 1 ng/kg bodyweight of LPS was administered intravenously.
# (§7) In the first part of the study, a total of 48 male and female healthy volunteers were enrolled and randomized over 4 treatment groups (sevuparin low, intermediate or high dose or matching placebo). Each treatment group consisted of 12 healthy volunteers. All subjects underwent an intravenous LPS challenge.
# (§8) In the first part of the current study, subjects are administered with intravenous LPS 30 min after the start of the infusion of sevuparin on study Day 1. LPS, purified lipopolysaccharide prepared from Escherichia Coli: 113: H10: K negative (U.S. Standard Reference Endotoxin) is used. This LPS batch was manufactured in the US by List Biological Laboratories. All participants received 1 ng/kg E. coli purified LPS, administered as a 2-minute infusion. To ensure that participants stay adequately hydrated, additionally saline (NaCl 0.9%) or glucose/saline was infused (2.5% glucose/0.45% sodium chloride) starting approximately 2 hours before LPS administration at a rate of 750 ml/h, until 6 h afterwards at a rate of 150 ml/h (Hijma et al., 2020). During infusion of study drug or placebo, infused over 6 hours at an infusion rate of 80 mL/h, the infusion rate of glucose/saline was lowered to 80 mL/h.
# Blood and other biological samples are collected for the following clinical laboratory tests: Haematology; Chemistry and electrolytes; Glucose; […] (after 4-hours fasting); […] (conjugated bilirubin is reported only when total bilirubin is outside the reference range); Virology; Urinalysis; Pregnancy (for women, serum pregnancy test is performed at screening and urine pregnancy test at other visits when scheduled, and if pregnancy is suspected during the study); Alcohol screening; and Urine drug screening.
# [2] = tested on: inflammatory biomarkers cytokines and C-Reactive Protein (CRP); settings: for C-Reactive Protein / IL-6 in plasma / IL-8 in plasma / IL-10 in plasma / TNF-α in plasma: LS Means, IV LPS 1 ng/kg
# Excerpt: as §1, §2, §3, §4, §5, §6, §7, §8
# Blood is collected at time points as shown in Table 1 below for the assessment of cytokines. Venous blood (4 mL) is collected in K2EDTA tubes. Plasma is collected after centrifugation at 2000×g for 20 minutes at room temperature and stored at −80° C., in 3×0.5 ml aliquots until analysis. Samples are analysed by Ardena Laboratories Assen.
# (§9) Throughout the Figures and tables related to the clinical study test results, the following abbreviations and its definitions are used: • IV LPS Placebo means subjects who have been challenged with intravenous LPS and thereafter received placebo intravenously as described above. • Sevuparin 0.3/0.08 means (sevuparin low dose): loading bolus dose of 0.3 mg/kg bodyweight, followed by 0.08 mg/kg/h intravenously; • Sevuparin 1/0.25 means (sevuparin intermediate dose): loading dose of 1 mg/kg bodyweight, followed by 0.25 mg/kg/h intravenously; • Sevuparin 3/0.75 means (sevuparin high dose): loading dose of 3 mg/kg bodyweight, followed by 0.75 mg/kg/h intravenously.
# healthy volunteers [3] = settings: for Body temperature / Diastolic blood pressure / Heart rate / NRS feeling sick / Systolic blood pressure: LS Means, IV LPS 1 ng/kg
# Excerpt: as §1, §2, §4, §5, §6, §7, §8
# Evaluations of systolic and diastolic blood pressure, pulse rate, respiratory rate, and temperature is performed throughout the study. Pulse and blood pressure is taken after 5 minutes in the supine position. Automated oscillometric blood pressures and pulse rate is measured using a Dash 3000,
# Subjective assessment of feeling sick is recorded by the subjects during the first part of the study (IV LPS infusion) on a numeric rating scale (NRS) electronically.
# as §9
# [4] = sevuparin 0.3/0.08 (loading bolus 0.3 mg/kg, then 0.08 mg/kg/h IV)
# [5] = sevuparin 1.0/0.25 (loading 1 mg/kg, then 0.25 mg/kg/h IV)
# [6] = sevuparin 3.0/0.75 (loading 3 mg/kg, then 0.75 mg/kg/h IV)
# [7] = IV LPS, in words, all doses vs placebo
substance,measurement,setting,value
sevuparin,change in basophils compared to placebo control,"healthy volunteers [1]; IV LPS, in words",dose dependent pronounced increase
same,change in neutrophils compared to placebo control,"healthy volunteers [1]; IV LPS, in words",dose dependent pronounced increase
same,change in lymphocytes compared to placebo control,"healthy volunteers [1]; IV LPS, in words, FIG. 1",dose dependent pronounced increase
same,Basophil count,healthy volunteers [1]; [4],0.029 E9/L
same,Eosinophil count,healthy volunteers [1]; [4],0.114 E9/L
same,Lymphocyte count,healthy volunteers [1]; [4],1.046 E9/L
same,Monocyte count,healthy volunteers [1]; [4],0.335 E9/L
same,Neutrophil count,healthy volunteers [1]; [4],6.650 E9/L
same,Basophil count,healthy volunteers [1]; [5],0.032 E9/L
same,Eosinophil count,healthy volunteers [1]; [5],0.105 E9/L
same,Lymphocyte count,healthy volunteers [1]; [5],1.136 E9/L
same,Monocyte count,healthy volunteers [1]; [5],0.339 E9/L
same,Neutrophil count,healthy volunteers [1]; [5],5.788 E9/L
same,Basophil count,healthy volunteers [1]; [6],0.039 E9/L
same,Eosinophil count,healthy volunteers [1]; [6],0.117 E9/L
same,Lymphocyte count,healthy volunteers [1]; [6],1.369 E9/L
same,Monocyte count,healthy volunteers [1]; [6],0.376 E9/L
same,Neutrophil count,healthy volunteers [1]; [6],7.073 E9/L
same,therapeutic effect on C-Reactive Protein (CRP),"[2]; IV LPS, in words, vs placebo",no therapeutic effect
same,therapeutic effect on the inflammatory biomarkers cytokines,"[2]; IV LPS, in words, vs placebo",no therapeutic effect
same,C-Reactive Protein,[2]; [4],10.893 mg/mL
same,IL-6 in plasma,[2]; [4],19.587 pg/mL
same,IL-8 in plasma,[2]; [4],19.393 pg/mL
same,IL-10 in plasma,[2]; [4],8.125 pg/mL
same,TNF-α in plasma,[2]; [4],5.574 pg/mL
same,C-Reactive Protein,[2]; [5],11.080 mg/mL
same,IL-6 in plasma,[2]; [5],16.012 pg/mL
same,IL-8 in plasma,[2]; [5],19.843 pg/mL
same,IL-10 in plasma,[2]; [5],11.825 pg/mL
same,TNF-α in plasma,[2]; [5],5.415 pg/mL
same,C-Reactive Protein,[2]; [6],11.853 mg/mL
same,IL-6 in plasma,[2]; [6],13.712 pg/mL
same,IL-8 in plasma,[2]; [6],17.820 pg/mL
same,IL-10 in plasma,[2]; [6],7.527 pg/mL
same,TNF-α in plasma,[2]; [6],5.039 pg/mL
same,respiratory rate compared to placebo,"healthy volunteers [3]; FIG. 2, IV LPS, highest intravenously administered dose of sevuparin",improvement of the respiratory rate
same,therapeutic impact on body temperature,healthy volunteers [3]; [7],did not have any therapeutic impact
same,therapeutic impact on diastolic blood pressure,healthy volunteers [3]; [7],did not have any therapeutic impact
same,therapeutic impact on feeling sick,healthy volunteers [3]; [7],did not have any therapeutic impact
same,therapeutic impact on heart rate,healthy volunteers [3]; [7],did not have any therapeutic impact
same,therapeutic impact on systolic blood pressure,healthy volunteers [3]; [7],did not have any therapeutic impact
same,Body temperature,healthy volunteers [3]; [4],37.13
same,Diastolic blood pressure,healthy volunteers [3]; [4],63.5 mm Hg
same,Heart rate,healthy volunteers [3]; [4],69.7 bpm
same,NRS feeling sick,healthy volunteers [3]; [4],1.9
same,Systolic blood pressure,healthy volunteers [3]; [4],115.5 mm Hg
same,Body temperature,healthy volunteers [3]; [5],36.93
same,Diastolic blood pressure,healthy volunteers [3]; [5],63.9 mm Hg
same,Heart rate,healthy volunteers [3]; [5],71.1 bpm
same,NRS feeling sick,healthy volunteers [3]; [5],1.9
same,Systolic blood pressure,healthy volunteers [3]; [5],117.3 mm Hg
same,Body temperature,healthy volunteers [3]; [6],36.97
same,Diastolic blood pressure,healthy volunteers [3]; [6],62.7 mm Hg
same,Heart rate,healthy volunteers [3]; [6],70.5 bpm
same,NRS feeling sick,healthy volunteers [3]; [6],2.0
same,Systolic blood pressure,healthy volunteers [3]; [6],114.0 mm Hg
